Melting point data for 87 molecules are collected here from a melting point compilation (Tetko et al.; mined from patent text by program, amines drawn as free bases though some values may be those of a salt).

For orientation: melting point means the temperature, or range, at which the solid turns liquid.

Bounds are passed on as bounds.

In turn, `COc1cccc2c(C(=O)c3ccc(OC4CCCCC4N4CCCCC4)cc3)c(-c3ccc(OCCN4CCCC4)cc3)sc12` (configuration not stated) returned a melting point of 66 to 69 °C.

The molecule `Cc1ccsc1C(=O)Cc1ccc(Cl)cc1[N+](=O)[O-]` had a melting point of 105 to 107 °C.

With `CN1c2ccccc2C2CCN(CCC(C(=O)N3CCCCCC3)c3ccccc3)CC21` (configuration not stated), the melting point was found to be 150 °C.

As for `CC(C)NC(=O)NCCSCc1ccc(CN(C)C)o1`, the melting point lay within 65 to 67 °C.

Take `CCOC(=O)C1=C(C)NN=C(CC)C1c1ccccc1C(F)(F)F` (configuration not stated): the melting point is 124 °C.

In turn, `CCc1c(C(C)(C)C)cc(C(C)(C)C)c(O)c1C(=O)Nc1ccc(S(=O)(=O)C(F)(F)F)cc1Cl` gave a melting point of 157 to 158 °C.

Consider `COc1cc(Nc2c(C#N)cnc3cc(-c4ccc(CN5CCOCC5)cc4)c(OC)cc23)c(Cl)cc1Cl`, for which the melting point is 108 to 110 °C.

In turn, `CN1CC(C)(C)c2ccc(NC(=O)/C=C/c3ccc(C(C)(C)C)cc3)cc21` gave a melting point of 90 to 101 °C.

Take `C(=Cc1ccccc1)CN1CCN(C2c3ccccc3Sc3ccccc32)CC1`: the melting point is 115 to 117 °C.

`Cc1cccc(C)c1NC(=O)CCS(=O)(=O)c1cc(C(C)(C)C)c(O)c(C(C)(C)C)c1` had a melting point of 218 to 219 °C.

The molecule `CCCOc1ccccc1-c1nc(NCC)cc(=O)[nH]1` yielded a melting point of 187 to 188 °C.

For `CCOc1cccc(C(S)C(=O)O)c1` (configuration not stated), the melting point was in the range of 105 to 107 °C.

With `CCN(CC)C(=O)COc1ccc(C(=O)CCl)cc1`, the melting point was 89 to 91 °C.

For `N#Cc1ccc2c(c1)S(=O)c1ccccc1C=C2` (configuration not stated), the melting point was 220 to 222 °C.

`COC(=O)CCC(C(=O)C=Cc1ccc(O)c(OC(F)(F)F)c1)C(=O)C=Cc1ccc(O)c(OC(F)(F)F)c1` (configuration not stated) displayed a melting point of 142 to 143 °C.

As to `Cc1cscc1NC(=S)Nc1cccc(C)c1N`, the melting point fell in the range of 184 to 186 °C.

Molecule `Cc1ccc(C(=O)NCCO)cc1-n1c(C)cc(OCc2ccccc2CNC(=O)Nc2cc(C(C)(C)C)nn2-c2ccc(O)c(Cl)c2)c(Cl)c1=O` showed a melting point of 195 to 196 °C.

With `CN(c1ccc(Cl)cc1)S(=O)(=O)c1cccc(C(=O)Nc2ccc(Cl)cc2F)c1`, the melting point lay in the range of 119 to 120 °C.

The molecule `O=C(NC(Cc1ccncc1)C(=O)O)OCc1cc2cc(-c3cccnc3)ccc2o1` (configuration not stated) returned a melting point of 257 °C.

On to `COc1cccc(P(=O)(c2ccc(C)cc2)c2ccc(C)cc2)c1`, for which the melting point was in the range of 96 to 98 °C.

Regarding `O=C1CCC(c2ccc(-n3ccc(=O)cc3)cc2)=NN1`, the melting point lay in the range of 270 to 272 °C.

On to `CNc1cc(Oc2ccc3c(C(=O)O)cccc3c2)ncn1`, for which the melting point lay within 267 to 268 °C.

`CCOC(=O)C1CCc2c([nH]c3ccc(N(C)C)cc23)C1` (configuration not stated) displayed a melting point of 100 to 101 °C.

Turning to `CC(Nc1nc(-c2ccc([N+](=O)[O-])cc2)nc2[nH]ccc12)c1ccccc1` (configuration not stated), the melting point was over 250 °C.

For the molecule `CCc1c(Cc2[nH]c(C(=O)OCc3ccccc3)c(C)c2CCCO)[nH]c(Cc2[nH]c(C(=O)OCc3ccccc3)c(C)c2CCCO)c1CC`, the melting point was 172 to 173 °C.

The molecule `CC(C)(O)Cn1c(CCO)nc2c(N)nc3cccnc3c21` had a melting point of 194 to 195 °C.

The molecule `O=C(O)CC12CC3CC(CC(Cl)(C3)C1)C2` returned a melting point of 182 to 184 °C.

As to `Cc1nc2c(C)cccn2c1C1=NNC(=O)CO1`, the melting point lay within 310 to 313 °C.

Take `COc1cccc(C2CNC(=O)C2c2cn3c4c(cccc24)CCC3)c1` (configuration not stated): the melting point is 191 to 194 °C.

`CN1NN=C(c2ccc3c(c2)S(=O)(=O)c2ccccc2C3=O)N1`: the melting point fell in the range of 204 to 205 °C.

Regarding `FC(F)c1nc2ccccc2n1-c1nc(NCc2ccccn2)nc(N2CCOCC2)n1`, the melting point is 192 to 193 °C.

In the case of `CO/N=C(\C(=O)OC)c1nsc(NC(=O)OC)n1`, the melting point was 158 to 161 °C.

For `NC(=O)CC[C@H](NC(=O)c1ccc(OCc2ccccc2)cc1OCc1ccccc1)C(=O)N1CCN(Cc2ccccc2)CC1`, the melting point fell in the range of 133 to 135 °C.

As to `CCCCCCCCCCCCc1nnn(C(C)C(=O)Nc2c(OC)cc(OC)cc2OC)n1` (configuration not stated), the melting point lay in the range of 155 to 157 °C.

`Fc1ccc(-c2ncn(C3CCNCC3)c2-c2ccnc(Oc3ccccc3)n2)cc1` showed a melting point of 182 to 183 °C.

As for `COC(=O)c1c[nH]c(Sc2ccc(Cl)cc2)c1`, the melting point was in the range of 122 to 124 °C.

`CCn1ncc2c(O)c(C(=O)O)c(CCc3ccccc3)nc21` gave a melting point of 160 to 161 °C.

With `COc1ccc(Cl)cc1-n1c(-c2ccc(C(F)(F)F)cc2)n[nH]c1=S`, the melting point is 275 to 280 °C.

Turning to `[O-][N+]1=C(c2ccccc2)C2=NCCN2c2cc(N3CCNCC3)ccc21`, the melting point is 209 to 211 °C.

The molecule `CN1C(=O)[C@H](NC(=O)COc2ccc(Cl)cc2Cl)N=C(c2ccccc2)c2ccccc21` returned a melting point of 206 °C.

Regarding `O=C1CC(c2cccc(-n3ccnc3)c2)=Nc2ccc(-c3cccc(F)c3)cc2N1`, the melting point was 200 to 201 °C.

In the case of `COc1cc2ncc(N[C@@H]3C[C@@H]4C[C@H]3C[C@H]4O)nc2cc1OC`, the melting point was in the range of 190 to 192 °C.

Turning to `O=C(NC1CC1)c1ccc(N2CCN(Cc3cnc4c(c3)[nH]c(=O)n3cccc43)CC2)cc1`, the melting point lay within 270 to 272 °C.

The molecule `CCOC(=O)C1=C(C=NO)Nc2nccn2C1c1cccc([N+](=O)[O-])c1` (configuration not stated) gave a melting point of 229 to 230 °C.

Molecule `COc1cc2c(cc1OCc1ccccc1)CCN(Cc1cccc(Oc3ccccc3)c1)C2` returned a melting point of 111 to 112 °C.

Take `Cc1c(OCC(F)(F)F)ccnc1CSc1nc2ccccc2[nH]1`: the melting point was in the range of 142 to 144 °C.

The molecule `CC(=S)NC[C@H]1CN(c2ccc(N3CCC(C#N)(C(C#N)C#N)CC3)c(F)c2)C(=O)O1` showed a melting point of 178 to 180 °C.

On to `Clc1cccc(-c2ccc3nncn3n2)c1`, for which the melting point was 175 to 177 °C.

Consider `COc1cc2[nH]c3c(c2cc1OC)CC(=CC1CCN(Cc2ccccc2)CC1)C3=O`, for which the melting point was in the range of 244 to 245 °C.

`O=C(O)COc1ccnc2ccccc12` had a melting point of 274 to 276 °C.

Molecule `C=CCNC(=O)N1CC(Oc2cccc(Br)c2)C1` yielded a melting point of 90 to 92 °C.

Molecule `Nc1ncc(C(=O)CBr)cc1Cl` registered a melting point of 134 °C.

`COC(=O)C1=C(CCc2ccccc2OC)NC(CC(=O)N2CCN(CC(=O)NC(C)C)CC2)=C(C(=O)OC)C1c1c(Cl)cccc1Cl` (configuration not stated) gave a melting point of 161 to 163 °C.

`CCCCNc1c(C(=O)OCC)c(C)nc2[nH]nnc12` displayed a melting point of 188 to 189 °C.

Regarding `ClCc1ncc(-c2ccccc2)c2ccccc12`, the melting point fell in the range of 101 to 102 °C.

Turning to `O=C(O)c1cn(-c2ccc(F)cc2)c2c(F)c(N3Cc4ccc(F)cc4C3)c(F)cc2c1=O`, the melting point is over 300 °C.

In turn, `Clc1ccc(-c2nc(Sc3cccs3)[nH]c2-c2ccc(Cl)cc2)cc1` registered a melting point of 219 °C.

For the molecule `Cc1c(C)c2c(c(C)c1NCc1ccc3c(c1)OCO3)C(c1ccc(C(C)C)cc1)C(C)(C)O2` (configuration not stated), the melting point was in the range of 100 to 102 °C.

`O=C(N[C@@H]1CCNC[C@H]1O)c1ccccc1` (relative stereo): the melting point stood at 210 °C.

For the molecule `CCOC(=O)Cn1c2c(c3c(Cl)c(Cl)ccc31)CCN(C(=O)OC(C)(C)C)CC2`, the melting point was in the range of 136 to 138 °C.

As for `CN1Cc2c(C(=O)OC(C)(C)C)ncn2-c2cccc(Cl)c2C1=O`, the melting point was 188 to 190 °C.

Consider `COc1cc(F)c(C(=O)CCl)c(OC)c1`, for which the melting point was in the range of 93 to 96 °C.

In turn, `CCc1cc2c(NCCc3ccccc3)ccnc2s1` gave a melting point of 88 °C.

`CCC[C@H]1C(=O)N(S(=O)(=O)c2ccc3ccccc3c2)[C@H]2CCN(S(C)(=O)=O)[C@H]12` (relative stereo) came in with a melting point of 257 to 260 °C.

Molecule `Cc1ccc(OCC(O)CNC(C)(C)C)c([N+](=O)[O-])c1[N+](=O)[O-]` (configuration not stated) gave a melting point of 104 to 106 °C.

On to `COC(=O)C(=O)Nc1ccc(C(CC2CCCC2)C(=O)Nc2nccs2)cc1` (configuration not stated), for which the melting point was 95 to 98 °C.

For `COc1ccnc(CCc2nc3cc(C)cnc3[nH]2)c1`, the melting point is 150 to 152 °C.

Turning to `CC(=O)N1N=C(c2ccc([N+](=O)[O-])c(C)c2)c2cc3c(cc2CC1C)OCO3` (configuration not stated), the melting point was in the range of 123 to 127 °C.

For `CC(=O)c1ccc2c(c1)c1cc(-c3ccc(Cl)cc3Cl)c(=O)n(C)c1n2C`, the melting point fell in the range of 254 to 255 °C.

`Nc1nc(N)nc(N2CCOCC2)n1` returned a melting point of 248 to 250 °C.

As for `Cn1nc(-c2cc(O)c(C#N)cc2F)c(Cl)c1C(F)(F)F`, the melting point is 151 °C.

In the case of `C#Cc1ccc2c(c1)C(c1ccccn1)=NCc1c(-c3nc(C(C)C)no3)ncn1-2`, the melting point was over 200 °C.

The molecule `CC(C)(CI)c1cc(Cl)nnc1Cl` gave a melting point of 104 to 106 °C.

`ICCCCCOc1ccc(C2=C(c3ccccc3)CCCc3ccccc32)cc1` yielded a melting point of 104 to 106 °C.

As for `O=C(NCc1ccccc1)C1CC=CC(O)C1` (configuration not stated), the melting point lay in the range of 127 to 128 °C.

For the molecule `CC(C)(C)C(=O)SCCNC(=O)CCNC(=O)OCc1ccccc1`, the melting point was in the range of 87 to 88 °C.

Turning to `Cc1cccc(C(=O)N(NC(C)C)C(C)(C)C)c1`, the melting point was in the range of 107 to 109 °C.

`Cc1ccnc2c1N=C(Cl)c1cccnc1N2C1CC1`: the melting point was in the range of 196 to 198 °C.

With `O=C(Nc1ccccc1C(c1ccc(O)cc1)c1ccc(O)cc1)C12CC3CC(CC1C3)C2`, the melting point fell in the range of 155 to 157 °C.

On to `COc1ccc(C(=O)Nc2ccc(F)c(F)c2)cc1NCc1cccc(O)c1`, for which the melting point lay within 160 to 163 °C.

On to `CC(C)=NNC(=O)NCCCN(C)C`, for which the melting point lay in the range of 49 to 53 °C.

Molecule `O=c1[nH]c(=O)n(C2CC(F)C(CO)O2)cc1C(Cl)=CI` (configuration not stated) returned a melting point of 87 °C.

In the case of `CC(CC(C)(C)O)=NO`, the melting point lay within 159 to 161 °C.

In the case of `Cc1cc(C)cc(C(=O)c2c(C(C)C)c(=O)[nH]c(=O)n2C/C=C/CN=[N+]=[N-])c1`, the melting point is 126 to 127 °C.

`CN(C)c1cc(C(O)CS(C)(=O)=O)cc(N(C)C)c1` (configuration not stated) displayed a melting point of 128 to 130 °C.

With `Cn1cc(CS(C)=O)c(=O)c2ccc(C(F)(F)F)cc21` (configuration not stated), the melting point lay within 208 to 210 °C.

On to `Brc1ccc(C#CC#Cc2ccc(Br)cc2)cc1`, for which the melting point is 264 to 265 °C.
